This passage reports Kd results from paper PMC3237907 (Nano letters, 2011).

The assay addresses T1, ParM mutant (His6/K33A/D63C/T174A/T175N/D224C/C287A), TMR-labelled ADP sensor (Escherichia coli, UniProt P11904, C287A/D224C/D63C/K33A/T174A/T175N).
T1 sequence (P11904 1-320 K33A/D63C/T174A/T175N/D224C/C287A): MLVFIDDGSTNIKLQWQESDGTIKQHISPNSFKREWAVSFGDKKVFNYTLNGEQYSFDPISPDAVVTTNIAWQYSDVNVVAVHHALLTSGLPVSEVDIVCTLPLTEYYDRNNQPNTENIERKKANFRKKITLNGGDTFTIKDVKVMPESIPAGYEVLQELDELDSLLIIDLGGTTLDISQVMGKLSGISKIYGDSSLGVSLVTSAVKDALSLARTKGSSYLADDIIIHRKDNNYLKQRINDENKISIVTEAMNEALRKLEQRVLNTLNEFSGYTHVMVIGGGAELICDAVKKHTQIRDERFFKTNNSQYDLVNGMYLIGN
Description: single-molecule TIRF, TMR self-quenching. It counts as binding.

Molecule `Nc1ncnc2c1ncn2[C@@H]1O[C@H](COP(=O)(O)OP(=O)(O)O)[C@@H](O)[C@H]1O` [ADP] had a Kd of 20 ± 3 µM.
